Patent US20250345344A1, “NOVEL NRF2 ACTIVATOR AND USE THEREOF” (SHANGHAI INSTITUTE FOR BIOMEDICAL AND PHARMACEUTICAL …, priority 2022, published 2025)

Legend:
ovarian granulosa cells = assay: Protection of primary ovarian granulosa cells against doxorubicin (DOX) cytotoxicity, CCK-8; format: cell-based, mice; conditions: DOX alone, final concentration 25 μg/mL
Description: In-vitro-Culture of granulosa cells of mice. Female ICR mice aged 21 to 23 days were euthanized by dislocation after anesthesia. After disinfecting the abdominal skin with 75% alcohol, bilateral ovaries were taken out and antral follicles were punctured under dissecting microscope to release granulosa cells into a M2 culture medium containing 20% FBS. Then the culture medium was centrifuged at 1,000 revolutions per minute for 5 minutes. Supernatant was discarded, and residue was washed three times with a culture medium, and then was placed in a 96 well plate in an alpha MEM culture medium containing 5% FBS for further culture. […]
After the granulosa cells in a 96 well plate prolificated to 70% to 80%, the culture medium was taken out, and 10 μL of the test drug (C1 (a compound represented by Formula I, m is 3, R1 is OH, and R2 is H), C2 (a compound represented by Formula I, m is 3, R1 is Cl, and R2 is H), C3 (a compound represented by Formula I, m is 3, R1 is OCH3, and R2 is H), C4 (a compound represented by Formula I, m is 3, R1 is H, and R2 is H)), 10 μL of DOX with a final concentration of 25 μg/mL, and 80 μL of fresh culture medium were sequentially added. […] The absorbance (OD) value (450 nm) of each well was measured using an enzyme-linked immunosorbent assay (ELISA) reader to calculate the survival rate of granulosa cells of mice. […]

[1] = system: Keap1-Nrf2/ARE signaling pathway; assay: Western blot of Keap1-Nrf2/ARE pathway related proteins in H2O2 induced SH-SY5Y nerve cell injury model; format: cell-based, human; conditions: NAC 1 mM pre-treated 1 hour, then H2O2 400 μM 24 hours, P<0.05
Description: (§1) The culture of cells. Human neuroblastoma cells SH-SY5Y (American Type Culture Collection, Manassas, VA, USA) were cultivated in an incubator at 37° C. and a volume fraction of 5% CO2. The culture medium contains DMEM/F-12, 2 mM glutamine, 100 U/ml penicillin, 100 μg/ml streptomycin, and 10% FBS. Cells were seeded into a 96 well plate at a density of 2×10^4 cells per well and subjected to proliferation until 90%.
(§2) The cells were randomly divided into four groups: blank control group, hydrogen peroxide group (Veh), Mep-S group, and NAC group (a neuroprotective drug used as a positive control). The cells of Mep-S group (1 μM) and NAC group (1 mM) were pre-treated with corresponding concentrations of drugs for 1 hour. Then, except for the blank control group which was given physiological saline, the cells of all other groups were incubated with H2O2 (400 μM) for 24 hours.
Western blot was used to detect the expression levels of neuronal apoptosis protein (Caspase3) and Keap1-Nrf2/ARE pathway related proteins (Keap1, Nrf2, HO-1, NQO-1, etc.) in each group. The bands were visualized using enhanced chemiluminescence (Pierce, Rockford, IL, USA) and quantitative analysis was performed using Image Studio Lite 5.2.

SH-SY5Y cells = assay: Annexin V/PI dual staining, apoptosis by flow cytometry in H2O2 injured SH-SY5Y cells; format: cell-based, human; conditions: NAC 1 mM pre-treated 1 hour, then H2O2 400 μM 24 hours; P<0.05
Description: as §1, §2
Annexin V/PI dual staining method was used to detect the protective effect of Mep-S on cellular oxidative damage. Cell apoptosis was measured by flow cytometry using FITC Annexin V apoptosis detection kit (BD Pharmingen, Franklin Lakes, NJ, USA). The operation was performed following the instructions.

[2] = compared with H2O2 damage group

| Structure (SMILES) | Cell survival rate (%) (ovarian granulosa cells; 24 hours, CCK-8 (positive control group)) | growth of granulosa cells (in words) (ovarian granulosa cells; p<0.01 versus negative control) | phosphorylation level of Akt [1] | level of HO-1 protein [1, 2] | level of Keap 1 protein [1, 2] | level of NQO-1 protein [1, 2] | level of Nrf2 protein in the cell nucleus [1, 2] | level of Nrf2 protein in the cytoplasm [1, 2] | apoptosis rate of SH-SY5Y cells (SH-SY5Y cells) |
| --- | --- | --- | --- | --- | --- | --- | --- | --- | --- |
| COc1cccc2c1C(=O)c1c(O)c3c(c(O)c1C2=O)C[C@@](O)(C(=O)CO)C[C@@H]3O[C@H]1C[C@H](N)[C@H](O)[C@H](C)O1 [DOX, doxorubicin] | 61.8 | significantly inhibited the growth |  |  |  |  |  |  |  |
| CC(=O)N[C@@H](CS)C(=O)O [NAC] |  |  | significantly restores its expression level | significantly inhibits the decrease | inhibits the increase | significantly inhibits the decrease | significantly inhibits the decrease | inhibits the increase | significantly reduces the apoptosis rate |
